Reference: patent US5892041A, “Fused indolecarboxamides: dopamine receptor subtype specific ligands” (Neurogen Corporation, priority 1996, dated 1999)
Where a name gives a salt, the structure may show the parent alone.

Key:
D2 receptors = biological target: T1, D2 receptors (Chlorocebus aethiops, UniProt P52702); assay: D2 receptor binding ([3H]YM 09151-2 displacement, COS cell pellets with recombinant receptor); parameters: species or system African Green monkey; details: 0.5 nM 3H-YM 09151-2; recombinant receptor in COS cells; nonspecific with 1 mM spiperone; text also says rat striatal homogenates
T1 construct: 3H-YM 09151-2 displacement
Experimental: (§1) Pellets of COS cells containing recombinantly produced D2 or D3 receptors from African Green monkey were used for the assays. The sample is homogenized in 100 volumes (w/vol) of 0.05M Tris HCl buffer at 4° C. and pH 7.4. The sample is then centrifuged at 30,000×g and resuspended and rehomogenized. The sample is then centrifuged as described and the final tissue sample is frozen until use. The tissue is resuspended 1:20 (wt/vol) in 0.05M Tris HCl buffer containing 100 mM NaCl.
(§2) Incubations are carried out at 48° C. and contain 0.4 ml of tissue sample, 0.5 nM ^3 H-YM 09151-2 and the compound of interest in a total incubation of 1.0 ml. Nonspecific binding is defined as that binding found in the presence of […] spiperone; without further additions, nonspecific binding is less than 20% of total binding. The binding characteristics of representative compounds of the invention for D2 and D3 receptor subtypes are shown in Table 2 for rat striatal homogenates.

D3 receptors = biological target: T2, D3 receptors (Chlorocebus aethiops, UniProt P52703); assay: D3 receptor binding ([3H]YM 09151-2 displacement, COS cell pellets with recombinant receptor); parameters: species or system African Green monkey; details: 0.5 nM 3H-YM 09151-2; recombinant receptor in COS cells; nonspecific with 1 mM spiperone; text also says rat striatal homogenates
T2 construct: expressed in transfected cells; host or cells: COS cells
Experimental: as §1, §2

T2 sequence (P52703 whole entry): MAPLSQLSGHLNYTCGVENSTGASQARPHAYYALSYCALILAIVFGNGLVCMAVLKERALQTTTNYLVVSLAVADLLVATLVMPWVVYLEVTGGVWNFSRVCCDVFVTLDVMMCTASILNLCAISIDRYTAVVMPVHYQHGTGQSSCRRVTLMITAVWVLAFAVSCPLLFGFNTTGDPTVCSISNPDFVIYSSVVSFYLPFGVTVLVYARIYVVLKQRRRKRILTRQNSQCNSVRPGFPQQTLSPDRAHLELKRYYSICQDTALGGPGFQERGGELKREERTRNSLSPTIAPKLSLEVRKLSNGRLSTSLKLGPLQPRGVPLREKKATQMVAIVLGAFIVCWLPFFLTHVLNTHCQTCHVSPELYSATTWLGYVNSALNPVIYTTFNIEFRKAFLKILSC
T1 sequence (P52702 whole entry): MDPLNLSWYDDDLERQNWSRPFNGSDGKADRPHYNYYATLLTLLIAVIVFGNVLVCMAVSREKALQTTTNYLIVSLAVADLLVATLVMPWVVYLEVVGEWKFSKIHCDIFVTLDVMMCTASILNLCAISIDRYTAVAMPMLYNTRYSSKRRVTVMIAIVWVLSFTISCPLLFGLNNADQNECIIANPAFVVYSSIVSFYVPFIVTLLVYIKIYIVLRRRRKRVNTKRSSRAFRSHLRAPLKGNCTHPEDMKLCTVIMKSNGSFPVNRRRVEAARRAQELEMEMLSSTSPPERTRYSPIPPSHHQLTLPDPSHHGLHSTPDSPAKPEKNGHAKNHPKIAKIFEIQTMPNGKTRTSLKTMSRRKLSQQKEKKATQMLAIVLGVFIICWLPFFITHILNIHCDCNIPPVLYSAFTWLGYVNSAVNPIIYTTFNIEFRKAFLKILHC

Ki (D2 receptors) [nM]	Ki (D3 receptors) [nM]	Compound
250	0.5	O=C(NCCCCN1CCN(c2cccc(Cl)c2Cl)CC1)c1ccc2[nH]c3c(c2c1)CCCC3 [Compound 1, N-(1-{4-[4-(2,3-dichlorophenyl)piperazine-1-yl]}butyl)-1,2,3 4-tetrahydrocarbazole-6-carboxamide hydrochloride]
540	2	Cn1c2ccccc2c2cc(C(=O)NCCCCN3CCN(c4cccc(Cl)c4Cl)CC3)ccc21 [Compound 3, N-(1-{4-[4-(2,3-dichlorophenyl)piperazine-1-yl]}butyl)-9-methylcarbazole-3-carboxamide hydrochloride]
750	1	O=C(NCCCCN1CCN(c2cccc(Cl)c2Cl)CC1)c1ccc2c(c1)[nH]c1ccccc12 [Compound 4, N-(1-{4-[4-(2,3-dichlorophenyl)piperazine-1-yl]}butyl)-9H-carbazole-2-carboxamide hydrochloride]
